Experimental data taken from ChEMBL document CHEMBL5625174, “Are inhibitors of histone deacetylase 8 (HDAC8) effective in hematological cancers especially acute myeloid leukemia (AML) and acute lymphoblastic leukemia (ALL)?” (Eur J Med Chem, 2023).

Columns and labels:
U-937 = test: Cytotoxicity against human U-937 cells assessed as reduction in cell viability; assay type: functional, cell-based
MOLT-4 = test: Cytotoxicity against human MOLT-4 cells assessed as reduction in cell viability; assay type: functional, cell-based
Jurkat E6.1 = test: Cytotoxicity against human Jurkat E6.1 cells assessed as reduction in cell viability; assay type: functional, cell-based
Histone deacetylase 8 = target: T1, Histone deacetylase 8 (Homo sapiens, UniProt Q9BY41); test: Inhibition of HDAC8 (unknown origin) by fluorescence based assay
T1 sequence (Q9BY41 whole entry): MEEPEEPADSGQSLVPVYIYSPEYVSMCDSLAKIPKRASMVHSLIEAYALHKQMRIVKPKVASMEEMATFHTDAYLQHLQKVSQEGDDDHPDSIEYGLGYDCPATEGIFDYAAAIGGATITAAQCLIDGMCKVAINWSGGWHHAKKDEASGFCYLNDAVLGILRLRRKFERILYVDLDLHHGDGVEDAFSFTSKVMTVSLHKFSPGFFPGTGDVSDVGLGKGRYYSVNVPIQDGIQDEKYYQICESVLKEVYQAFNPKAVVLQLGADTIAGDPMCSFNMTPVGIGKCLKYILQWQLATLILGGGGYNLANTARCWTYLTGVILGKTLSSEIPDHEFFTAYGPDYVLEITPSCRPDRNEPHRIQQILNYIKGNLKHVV

Histone deacetylase = test: Inhibition of HDAC (unknown origin) using Fluoro-Substrate Peptide as substrate by fluorescence assay; assay type: protein assay, Homo sapiens

With CCCCCNC(=O)[C@H](CCC(=O)O)NC(=O)Cc1ccc(Cl)cc1Cl the IC50 (U-937) was < 35 µM, the IC50 (MOLT-4) was < 35 µM and the IC50 (Jurkat E6.1) was < 35 µM.

With CCCCNC(=O)[C@H](CCC(=O)O)NC(=O)Cc1ccc([N+](=O)[O-])cc1 the IC50 (U-937) was > 35 µM, the IC50 (MOLT-4) was < 35 µM and the IC50 (Jurkat E6.1) was < 35 µM.

For CCCCCNC(=O)[C@H](CCC(=O)O)NC(=O)Cc1ccc([N+](=O)[O-])cc1, the IC50 (U-937) was > 35 µM, the IC50 (MOLT-4) was < 35 µM and the IC50 (Jurkat E6.1) was < 35 µM.

In the case of CCCCCNC(=O)[C@H](CCC(=O)O)NC(=O)Cc1ccccc1Br, the IC50 (U-937) is reported as > 35 µM, the IC50 (MOLT-4) is reported as < 35 µM and the IC50 (Jurkat E6.1) is reported as > 35 µM.

In the case of O=C(O)CC[C@H](NC(=O)Cc1ccccc1F)C(=O)Nc1ccccc1, the IC50 (U-937) is reported as > 35 µM, the IC50 (MOLT-4) is reported as < 35 µM and the IC50 (Jurkat E6.1) is reported as < 35 µM.

In the case of O=C(O)CC[C@H](NC(=O)Cc1ccc(Br)cc1)C(=O)NC1CCCCC1, the IC50 (U-937) is reported as > 35 µM, the IC50 (MOLT-4) is reported as ≤ 35 µM and the IC50 (Jurkat E6.1) is reported as ≤ 35 µM.

CC(C)(C)NC(=O)[C@H](CCC(=O)O)NC(=O)Cc1ccccc1 was tested, and the IC50 (U-937) was ≤ 35 µM, the IC50 (MOLT-4) was ≤ 35 µM and the IC50 (Jurkat E6.1) was ≤ 35 µM.

In the case of CC(C)CNC(=O)[C@H](CCC(=O)O)NC(=O)Cc1ccccc1, the IC50 (U-937) is reported as > 35 µM, the IC50 (MOLT-4) is reported as > 35 µM and the IC50 (Jurkat E6.1) is reported as > 35 µM.

With CC(C)CNC(=O)[C@H](CCC(=O)O)NC(=O)Cc1ccccc1Cl the IC50 (U-937) was > 35 µM, the IC50 (MOLT-4) was ≤ 35 µM and the IC50 (Jurkat E6.1) was ≤ 35 µM.

For CCCCCNC(=O)[C@H](CCC(=O)O)NC(=O)Cc1ccc(Br)cc1, the IC50 (U-937) was > 35 µM, the IC50 (MOLT-4) was ≤ 35 µM and the IC50 (Jurkat E6.1) was ≤ 35 µM.

For CC(C)CNC(=O)[C@H](CCC(=O)O)NC(=O)Cc1ccccc1Br, the IC50 (U-937) was > 35 µM, the IC50 (MOLT-4) was < 35 µM and the IC50 (Jurkat E6.1) was < 35 µM.

CCCNC(=O)[C@H](CCC(=O)O)NC(=O)Cc1ccc(-c2ccccc2)cc1 was tested, and the IC50 (U-937) was > 35 µM, the IC50 (MOLT-4) was < 35 µM and the IC50 (Jurkat E6.1) was < 35 µM.

O=C(O)CC[C@H](NC(=O)Cc1ccccc1)C(=O)NCc1ccccc1 was tested, and the IC50 (U-937) was > 35 µM, the IC50 (MOLT-4) was > 35 µM and the IC50 (Jurkat E6.1) was > 35 µM.

With CC(C)NC(=O)[C@H](CCC(=O)O)NC(=O)Cc1ccccc1Br the IC50 (U-937) was > 35 µM, the IC50 (MOLT-4) was > 35 µM and the IC50 (Jurkat E6.1) was > 35 µM.

In the case of CCCCCNC(=O)[C@H](CCC(=O)O)NC(=O)Cc1ccccc1Cl, the IC50 (U-937) is reported as > 35 µM, the IC50 (MOLT-4) is reported as > 35 µM and the IC50 (Jurkat E6.1) is reported as ≤ 35 µM.

For O=C(O)CC[C@H](NC(=O)Cc1ccc(Br)cc1)C(=O)NCc1ccc(Cl)cc1, the IC50 (Histone deacetylase 8) was ≤ 10 µM, the IC50 (Histone deacetylase) was > 10 µM and the IC50 (U-937) was > 35 µM. For the same molecule, the IC50 (MOLT-4) was < 35 µM and the IC50 (Jurkat E6.1) was < 35 µM.

With CC(C)(C)NC(=O)[C@H](CCC(=O)O)NC(=O)Cc1ccc(Cl)cc1 the IC50 (U-937) was > 35 µM, the IC50 (MOLT-4) was < 35 µM and the IC50 (Jurkat E6.1) was < 35 µM.

With CCCCCCNC(=O)[C@H](CCC(=O)O)NC(=O)Cc1ccccc1F the IC50 (U-937) was > 35 µM, the IC50 (MOLT-4) was < 35 µM and the IC50 (Jurkat E6.1) was < 35 µM.

With Cc1ccccc1CC(=O)N[C@@H](CCC(=O)O)C(=O)Nc1ccccc1 the IC50 (U-937) was > 35 µM, the IC50 (MOLT-4) was > 35 µM and the IC50 (Jurkat E6.1) was > 35 µM.

In the case of CCCCNC(=O)[C@H](CCC(=O)O)NC(=O)Cc1ccc(-c2ccccc2)cc1, the IC50 (U-937) is reported as > 35 µM, the IC50 (MOLT-4) is reported as < 35 µM and the IC50 (Jurkat E6.1) is reported as < 35 µM.

With CCCNC(=O)[C@H](CCC(=O)O)NC(=O)Cc1ccc(Br)cc1 the IC50 (U-937) was > 35 µM, the IC50 (MOLT-4) was ≤ 35 µM and the IC50 (Jurkat E6.1) was ≤ 35 µM.

For CCCCNC(=O)[C@H](CCC(=O)O)NC(=O)Cc1ccccc1, the IC50 (U-937) was > 35 µM, the IC50 (MOLT-4) was ≤ 35 µM and the IC50 (Jurkat E6.1) was > 35 µM.

For O=C(O)CC[C@H](NC(=O)Cc1ccc(Cl)cc1)C(=O)NCc1ccccc1, the IC50 (Histone deacetylase 8) was ≤ 10 µM and the IC50 (Histone deacetylase) was > 10 µM.

With O=C(O)CC[C@H](NC(=O)Cc1ccc(Cl)cc1Cl)C(=O)NCc1ccccc1 the IC50 (Histone deacetylase 8) was ≤ 10 µM, the IC50 (Histone deacetylase) was > 10 µM and the IC50 (U-937) was ≤ 35 µM. For the same molecule, the IC50 (MOLT-4) was ≤ 35 µM and the IC50 (Jurkat E6.1) was ≤ 35 µM.

O=C(O)CC[C@H](NC(=O)Cc1ccc(Br)cc1)C(=O)NCc1ccc(Cl)c(Cl)c1 was tested, and the IC50 (Histone deacetylase 8) was ≤ 10 µM, the IC50 (Histone deacetylase) was > 10 µM and the IC50 (U-937) was > 35 µM. The IC50 (MOLT-4) was < 35 µM and the IC50 (Jurkat E6.1) was < 35 µM.

For CCCCNC(=O)[C@H](CCC(=O)O)NC(=O)Cc1ccccc1Cl, the IC50 (U-937) was > 35 µM, the IC50 (MOLT-4) was ≤ 35 µM and the IC50 (Jurkat E6.1) was ≤ 35 µM.

CCCCCNC(=O)[C@H](CCC(=O)O)NC(=O)Cc1ccccc1F was tested, and the IC50 (U-937) was > 35 µM, the IC50 (MOLT-4) was < 35 µM and the IC50 (Jurkat E6.1) was < 35 µM.

For CCCCCCNC(=O)[C@H](CCC(=O)O)NC(=O)Cc1ccc(Cl)cc1, the IC50 (Histone deacetylase 8) was ≤ 10 µM, the IC50 (Histone deacetylase) was > 10 µM and the IC50 (U-937) was ≤ 35 µM. The IC50 (MOLT-4) was ≤ 35 µM and the IC50 (Jurkat E6.1) was ≤ 35 µM.

With CCCCCCNC(=O)[C@H](CCC(=O)O)NC(=O)Cc1ccc2ccccc2c1 the IC50 (U-937) was > 35 µM, the IC50 (MOLT-4) was ≤ 35 µM and the IC50 (Jurkat E6.1) was ≤ 35 µM.

In the case of COc1ccc(CC(=O)N[C@@H](CCC(=O)O)C(=O)NCC(C)C)cc1, the IC50 (U-937) is reported as > 35 µM, the IC50 (MOLT-4) is reported as > 35 µM and the IC50 (Jurkat E6.1) is reported as > 35 µM.

CC(C)NC(=O)[C@H](CCC(=O)O)NC(=O)Cc1ccccc1 was tested, and the IC50 (U-937) was > 35 µM, the IC50 (MOLT-4) was ≤ 35 µM and the IC50 (Jurkat E6.1) was ≤ 35 µM.
